The results in this text go back to patent US8865182B2 (priority 2009, dated 2014).

The subject of one test is human donor PBMC. The class given is cell-based.
Consider IRWLIEEVRHRLRIT [SEQ ID NO: 31], for which the Recall stood at 4.

The sequence RMQFSSLTVNVRGSG [SEQ ID NO: 61] yielded a Recall of 2.

For IRPLLVEGTASLSPG [SEQ ID NO: 48], the Recall worked out at 1.

As for MGTVTTEVALGLVCA [SEQ ID NO: 15], the Recall was 5.

“QWIIRNWETVKIQWS (Influenza Virus) [SEQ ID NO: 60]” had a Recall of 3.

The sequence PTLLFLKVPAQNAIST [SEQ ID NO: 41] had a Recall of 2.

Take GVTVIKNNMINNDLGP [SEQ ID NO: 52]: the Recall amounted to 2.

Take KSQLVWMACHSAAFE [SEQ ID NO: 25]: the Recall stood at 2.

For SLCIRMDQAIMDKDI [SEQ ID NO: 27], the Recall came to 1.

In a further test the test system is HLA-A3 supertype (A*0301, A*1101, A*3101, A*3301, A*6801). In kind it is binding, human.
On to “TIGECPKYVK (Influenza Virus) [SEQ ID NO: 66]”, for which the “# Alleles Bound” value worked out at 1.

As to “KQIVERILK (Influenza Virus) [SEQ ID NO: 145]”, the “# Alleles Bound” value is 2.

For the sequence “MQGSTLPRR (Influenza Virus) [SEQ ID NO: 120]”, the “# Alleles Bound” value was determined as 2.

Consider “ATTHSWIPKR (Influenza Virus) [SEQ ID NO: 240]”, for which the “# Alleles Bound” value is listed as 2.

In the case of “KFLPDLYDYK (Influenza Virus) [SEQ ID NO: 177]”, the “# Alleles Bound” value is 2.

Consider “GTFDTVQIIK (Influenza Virus) [SEQ ID NO: 291]”, for which the “# Alleles Bound” value amounted to 3.

For the sequence “TTVDHMAIIK (Influenza Virus) [SEQ ID NO: 275]”, the “# Alleles Bound” value is 2.

In the case of “AQMALQLFIK (Influenza Virus) [SEQ ID NO: 237]”, the “# Alleles Bound” value is given as 2.

Take “SFSFGGFTFK (Influenza Virus) [SEQ ID NO: 283]”: the “# Alleles Bound” value is given as 5.

On to ASCMGLIYNR [SEQ ID NO: 74], for which the “# Alleles Bound” value is given as 4.

On to “ASYKIFKIEK (Influenza Virus) [SEQ ID NO: 95]”, for which the “# Alleles Bound” value was determined as 2.

“FSFGGFTFKR (Influenza Virus) [SEQ ID NO: 285]”: the “# Alleles Bound” value was 5.

With “VVFCGTSGTY (Influenza Virus) [SEQ ID NO: 96]”, the “# Alleles Bound” value is 2.

Consider SVQRNLPFER [SEQ ID NO: 126], for which the “# Alleles Bound” value is given as 4.

Take “SIAPIMFSNK (Influenza Virus) [SEQ ID NO: 231]”: the “# Alleles Bound” value came out at 4.

Take “HIYYLEKANK (Influenza Virus) [SEQ ID NO: 178]”: the “# Alleles Bound” value amounted to 4.

Consider “TVHYPKVYK (Influenza Virus) [SEQ ID NO: 280]”, for which the “# Alleles Bound” value worked out at 5.

Regarding “KFFPSSSYR (Influenza Virus) [SEQ ID NO: 243]”, the “# Alleles Bound” value amounted to 4.

Turning to MVLSAFDER [SEQ ID NO: 118], the “# Alleles Bound” value is given as 4.

With “MTKEFFENK (Influenza Virus) [SEQ ID NO: 186]”, the “# Alleles Bound” value turned out to be 5.

In the case of “LLPFAAAPPK (Influenza Virus) [SEQ ID NO: 292]”, the “# Alleles Bound” value is reported as 4.

As to “ALMEWLKTR (Influenza Virus) [SEQ ID NO: 73]”, the “# Alleles Bound” value amounted to 5.

For the sequence “SICNTTGVEK (Influenza Virus) [SEQ ID NO: 176]”, the “# Alleles Bound” value is reported as 4.

On to “YQKCCNLFEK (Influenza Virus) [SEQ ID NO: 242]”, for which the “# Alleles Bound” value stood at 2.

In the case of KVYKTYFEK [SEQ ID NO: 281], the “# Alleles Bound” value stood at 3.

For “ALANTIEVFR (Influenza Virus) [SEQ ID NO: 226]”, the “# Alleles Bound” value turned out to be 3.

Take “SVQPTFSVQR (Influenza Virus) [SEQ ID NO: 124]”: the “# Alleles Bound” value was 4.

On to FSFGGFTFK [SEQ ID NO: 284], for which the “# Alleles Bound” value stood at 5.

For the sequence “TTSTVHYPK (Influenza Virus) [SEQ ID NO: 278]”, the “# Alleles Bound” value is reported as 5.

In the case of “SINELSNLAK (Influenza Virus) [SEQ ID NO: 294]”, the “# Alleles Bound” value came to 3.

Consider “FQLIPMISK (Influenza Virus) [SEQ ID NO: 182]”, for which the “# Alleles Bound” value is recorded as 2.

As to MITQFESLK [SEQ ID NO: 156], the “# Alleles Bound” value was 3.

Turning to KTNLYGFIIK [SEQ ID NO: 183], the “# Alleles Bound” value is 4.

“MVTQRTIGKK (Influenza Virus) [SEQ ID NO: 228]”: the “# Alleles Bound” value worked out at 3.

Regarding “SLMQGSTLPR (Influenza Virus) [SEQ ID NO: 119]”, the “# Alleles Bound” value is listed as 4.

“RTFFGWKEPY (Influenza Virus) [SEQ ID NO: 180]”: the “# Alleles Bound” value is reported as 3.

Turning to “TFEFTSFFYR (Influenza Virus) [SEQ ID NO: 236]”, the “# Alleles Bound” value was 4.

In the case of “NLYGFIIKGR (Influenza Virus) [SEQ ID NO: 184]”, the “# Alleles Bound” value was 4.

Consider “QTYDWTLNR (Influenza Virus) [SEQ ID NO: 225]”, for which the “# Alleles Bound” value is on record as 4.

Turning to “KFLLMDALK (Influenza Virus) [SEQ ID NO: 179]”, the “# Alleles Bound” value is 2.

On to “RIMEMIPER (Influenza Virus) [SEQ ID NO: 277]”, for which the “# Alleles Bound” value came out at 4.

For GTFEFTSFFY [SEQ ID NO: 235], the “# Alleles Bound” value is given as 4.

As to “VLRGFLILGK (Influenza Virus) [SEQ ID NO: 293]”, the “# Alleles Bound” value was determined as 3.

In the case of “SQDPTMLYNK (Influenza Virus) [SEQ ID NO: 290]”, the “# Alleles Bound” value is recorded as 2.

As for “KIPKTKNMKK (Influenza Virus) [SEQ ID NO: 181]”, the “# Alleles Bound” value turned out to be 2.

On to “MVTQRTIGK (Influenza Virus) [SEQ ID NO: 227]”, for which the “# Alleles Bound” value is 4.

As for “VVSIDRFLR (Influenza Virus) [SEQ ID NO: 289]”, the “# Alleles Bound” value is 4.

For “KLLLIVQALR (Influenza Virus) [SEQ ID NO: 188]”, the “# Alleles Bound” value is recorded as 3.

Consider “HQLLRHFQK (Influenza Virus) [SEQ ID NO: 288]”, for which the “# Alleles Bound” value is 3.

For RLFFKCIYRR [SEQ ID NO: 82], the “# Alleles Bound” value came out at 5.

Regarding “KLVGINMSKK (Influenza Virus) [SEQ ID NO: 234]”, the “# Alleles Bound” value is given as 2.

For “ITGWAIFSK (Influenza Virus) [SEQ ID NO: 94]”, the “# Alleles Bound” value is given as 3.

“GTMVMELIR (Influenza Virus) [SEQ ID NO: 121]”: the “# Alleles Bound” value is 3.

As for “TQFESLKLYR (Influenza Virus) [SEQ ID NO: 157]”, the “# Alleles Bound” value stood at 3.

For “IQNSITIER (Influenza Virus) [SEQ ID NO: 117]”, the “# Alleles Bound” value is reported as 2.

“KLVGINMSK (Influenza Virus) [SEQ ID NO: 233]”: the “# Alleles Bound” value is 2.

“VLTGNLQTLK (Influenza Virus) [SEQ ID NO: 287]”: the “# Alleles Bound” value was found to be 2.

For the sequence “RLFFKCIYR (Influenza Virus) [SEQ ID NO: 81]”, the “# Alleles Bound” value came to 5.

As to “VQPTFSVQR (Influenza Virus) [SEQ ID NO: 125]”, the “# Alleles Bound” value is recorded as 3.

Turning to “GTFGPVHFR (Influenza Virus) [SEQ ID NO: 282]”, the “# Alleles Bound” value worked out at 5.

For the sequence “TVDHMAIIK (Influenza Virus) [SEQ ID NO: 276]”, the “# Alleles Bound” value was determined as 2.

Turning to “YQKCCTLFEK (Influenza Virus) [SEQ ID NO: 241]”, the “# Alleles Bound” value was found to be 2.

On to “LQLFIKDYR (Influenza Virus) [SEQ ID NO: 238]”, for which the “# Alleles Bound” value is listed as 3.

In the case of “AVASGYDFER (Influenza Virus) [SEQ ID NO: 123]”, the “# Alleles Bound” value is 3.

For the sequence “ITGFAPFSK (Influenza Virus) [SEQ ID NO: 93]”, the “# Alleles Bound” value amounted to 3.

On to “TLARSICEK (Influenza Virus) [SEQ ID NO: 230]”, for which the “# Alleles Bound” value is 3.

Take “MVMELIRMIK (Influenza Virus) [SEQ ID NO: 122]”: the “# Alleles Bound” value was determined as 4.

Take “LFFKCIYRR (Influenza Virus) [SEQ ID NO: 83]”: the “# Alleles Bound” value was 4.

“SFGGFTFKR (Influenza Virus) [SEQ ID NO: 286]”: the “# Alleles Bound” value turned out to be 4.

“STVHYPKVYK (Influenza Virus) [SEQ ID NO: 279]”: the “# Alleles Bound” value is recorded as 4.

For the sequence “ATTHSWIPK (Influenza Virus) [SEQ ID NO: 239]”, the “# Alleles Bound” value was 4.

Turning to “ALTLNTMTK (Influenza Virus) [SEQ ID NO: 229]”, the “# Alleles Bound” value worked out at 2.

In a further test the test system is HLA class II molecules (HLA-DRB1*0101, *0301, *0401, *0404, *0405, *0701, *0802, *0901, *1101, *1302, *1501, HLA-DRB4*0101, HLA-DRB5*0101). The class given is binding, human.
On to IRWLIEEVRHRLRIT [SEQ ID NO: 31], for which the “# Alleles Bound” value came out at 7.

With RMQFSSLTVNVRGSG [SEQ ID NO: 61], the “# Alleles Bound” value was 11.

Regarding IRPLLVEGTASLSPG [SEQ ID NO: 48], the “# Alleles Bound” value amounted to 10.

On to MGTVTTEVALGLVCA [SEQ ID NO: 15], for which the “# Alleles Bound” value came to 7.

With “QWIIRNWETVKIQWS (Influenza Virus) [SEQ ID NO: 60]”, the “# Alleles Bound” value was 11.

PTLLFLKVPAQNAIST [SEQ ID NO: 41]: the “# Alleles Bound” value stood at 11.

GVTVIKNNMINNDLGP [SEQ ID NO: 52]: the “# Alleles Bound” value is listed as 8.

Turning to KSQLVWMACHSAAFE [SEQ ID NO: 25], the “# Alleles Bound” value was found to be 11.

For SLCIRMDQAIMDKDI [SEQ ID NO: 27], the “# Alleles Bound” value is 7.

On to IYQILSIYSTVASSLA [SEQ ID NO: 11], for which the “# Alleles Bound” value came out at 13.

With ILSIYSTVASSLALAI [SEQ ID NO: 12], the “# Alleles Bound” value is reported as 12.

On to KSSFFRNVVWLIKKN [SEQ ID NO: 2], for which the “# Alleles Bound” value is given as 12.

Regarding ISGVKLESIGIYQILSI [SEQ ID NO: 10], the “# Alleles Bound” value was 10.

NRLVLATGLRNSPQR [SEQ ID NO: 8]: the “# Alleles Bound” value stood at 10.

Take RMEFFWTILKPNDAI [SEQ ID NO: 5]: the “# Alleles Bound” value came to 10.

With MEKIVLLFAIVSLVKSD [SEQ ID NO: 1], the “# Alleles Bound” value is on record as 6.

For the sequence PTTYISVGTSTLNQRL [SEQ ID NO: 4], the “# Alleles Bound” value amounted to 9.

As to WTILKPNDAINFESN [SEQ ID NO: 6], the “# Alleles Bound” value was 8.

For the sequence VVWLIKKNSTYPTIKR [SEQ ID NO: 3], the “# Alleles Bound” value is recorded as 9.

As for CPKYVKSNRLVLATGL [SEQ ID NO: 7], the “# Alleles Bound” value is 12.

In the case of ELLVLMENERTLDFHDS [SEQ ID NO: 9], the “# Alleles Bound” value is 8.
